{
  "source": "paper PMC12131194",
  "about": "“Rational design, synthesis, and evaluation of novel polypharmacological compounds targeting NaV1.5, KV1.5, and K2P channels for atrial fibrillation” (The Journal of Biological Chemistry, 2025)",
  "key": {"HEK-293 cells": {"system": "HEK-293 cells", "test": "MTT cytotoxicity assay", "format": "cell-based, human", "method": "Another method used to assess cytotoxicity was the MTT assay on HEK293 cells. Initially, the cells were seeded at 3000 cells per well in a 96-well plate. After 24 h, they were exposed to increasing compound concentrations (1, 5, 10, 25, 50, 100, 250 and 500 μM) for 72 h. The cells cultured in a medium supplemented with 10% FBS were the positive control for cell viability. Each condition was evaluated triplicate in independent experiments. The ROCHE Cell Proliferation Kit I, MTT (Cat. no. 11465007001), was used, following the manufacturer's indications. Briefly, 10 μl of the labeling reagent was added, and the plates were incubated at 37 °C for 4 h. Subsequently, 100 μl of solubilization solution was added to each well, and the plates were incubated overnight in the dark. Finally, optical density was measured at 570 nm using a microplate reader (Thermo Fisher Scientific). The optical density measurements were used to calculate cell viability, normalizing the data to the positive control. Results were expressed as a percentage of cell viability relative to this control. The IC50 value was determined by fitting a dose-response curve using a nonlinear regression model with a four-parameter logistic equation. The experimental data analysis was performed using SigmaPlot version 12.0 (Systat Software Inc)."}, "human TASK-1": {"biological_target": "human TASK-1 (Homo sapiens, UniProt O14649)", "sequence (O14649 whole entry)": "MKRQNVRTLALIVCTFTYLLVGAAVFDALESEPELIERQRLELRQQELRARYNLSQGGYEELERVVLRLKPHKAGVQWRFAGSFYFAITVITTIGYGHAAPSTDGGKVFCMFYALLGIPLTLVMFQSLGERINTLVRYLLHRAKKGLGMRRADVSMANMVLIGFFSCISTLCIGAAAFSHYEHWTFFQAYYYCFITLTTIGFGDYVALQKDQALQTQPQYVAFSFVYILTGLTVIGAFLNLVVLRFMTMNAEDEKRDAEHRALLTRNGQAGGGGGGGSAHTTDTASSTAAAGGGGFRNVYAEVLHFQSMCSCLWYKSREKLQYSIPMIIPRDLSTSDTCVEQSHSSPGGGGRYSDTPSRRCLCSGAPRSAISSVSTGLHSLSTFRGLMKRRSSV", "test": "Whole-cell patch-clamp in transfected HEK-293 cells, TASK-1", "format": "cell-based", "parameters": "human TASK-1 (KCNK3, NM_002246); expressed in transfected cells", "details": "HEK293, +40 mV", "method": "The human embryonic kidney 293 (HEK-293) cell line was obtained from the American Type Culture Collection. HEK-293 cells were cultured in Dulbecco’s modified Eagle’s medium (DMEM-F12, Invitrogen Life Technologies) supplemented with 5% (v/v) fetal bovine serum (FBS) (Thermo Fisher Scientific) and 1% antibiotics (penicillin 100 U/ml y streptomycin 100 μg/ml) (Gibco, Thermo Fisher). The cells were maintained at 37 °C and 5% CO2 atmosphere.\nFor the electrophysiological experiments, HEK-293 cells were transiently transfected with cDNA encoding human NaV1.5 (plasmid 145,374, Addgene), KV1.5 (NM_002234), and TASK-1 (NM_002246). […] The cells were incubated for 4 h in transfection medium OptiMEM (Invitrogen). […]\nFor Nav1.5, the effect of 6f at both concentrations was tested using a repetitive single test voltage pulse at −10 mV (during 20 ms) from a holding potential of −80 mV, with intervals of 5s between pulses. For Kv1.5 and TASK-1, ramp voltage protocols were applied with pulse intervals of 20 s, and the currents were analyzed at +40 mV. […]\nAfter recording currents with stable amplitudes, the cells were treated with 6f and applied from the bath solution. Currents were continuously recorded during repetitive pulses until a stable effect was achieved. […] The inhibition percentage was calculated as follows: Inℎibition (%) = 100 ∗ (Icontrol − Idrug)/Icontrol."}},
  "data": [
    {"compound": "CCCCN(CCCC)CC(=O)Nc1ccc(OC)cc1OC", "note": "[Compound 6f, 2-(dibutylamine)-N-(2,4-dimethoxiphenyl)acetamide]", "values": [
      {"measurement": "Concentrations with significant cytotoxic effects (MTT)", "setting": "HEK-293 cells; 72 h", "result": "higher than 129 μM"},
      {"measurement": "IC50", "setting": "HEK-293 cells; Homo sapiens, HEK293, 72 h, read-out: IC50 cell viability (MTT)", "result": 130, "unit": "µM"},
      {"measurement": "inhibition at 10 µM", "setting": "human TASK-1; 10 μM", "result": 70, "unit": "%"},
      {"measurement": "inhibition at 100 µM", "setting": "human TASK-1; 100 μM", "result": 70, "unit": "%"}
    ]}
  ]
}
